6 compounds from ChEMBL document CHEMBL1147528, “(S)-N-[1-(4-cyclopropylmethyl-3,4-dihydro-2H-benzo[1,4]oxazin-6-yl)-ethyl]-3-(2-fluoro-phenyl)-acrylamide is a potent and efficacious KCNQ2 opener which inhibits induced hyperexcitability of rat hippocampal neurons” (Bioorg Med Chem Lett, 2004) can be followed below.

Assay [1] concerns the target Potassium voltage-gated channel subfamily KQT member 2 (Mus musculus) (UniProt Q9Z351). Description: Efficacy for mKCNQ2 expressed in HEK293 cells relative to reference compound. The format is functional, cell-based.
For assay [2], the target named is Potassium voltage-gated channel subfamily KQT member 2 (Mus musculus, UniProt Q9Z351). Description: Whole-cell patch-clamp on recombinant mouse KCNQ2 channels expressed in HEK 293 cells at -40 mV. It is filed as functional, cell-based, HEK293. A general note: The patch-clamp technique gives a direct electrical read-out from membranes.
Sequence of Potassium voltage-gated channel subfamily KQT member 2 (Q9Z351 whole entry): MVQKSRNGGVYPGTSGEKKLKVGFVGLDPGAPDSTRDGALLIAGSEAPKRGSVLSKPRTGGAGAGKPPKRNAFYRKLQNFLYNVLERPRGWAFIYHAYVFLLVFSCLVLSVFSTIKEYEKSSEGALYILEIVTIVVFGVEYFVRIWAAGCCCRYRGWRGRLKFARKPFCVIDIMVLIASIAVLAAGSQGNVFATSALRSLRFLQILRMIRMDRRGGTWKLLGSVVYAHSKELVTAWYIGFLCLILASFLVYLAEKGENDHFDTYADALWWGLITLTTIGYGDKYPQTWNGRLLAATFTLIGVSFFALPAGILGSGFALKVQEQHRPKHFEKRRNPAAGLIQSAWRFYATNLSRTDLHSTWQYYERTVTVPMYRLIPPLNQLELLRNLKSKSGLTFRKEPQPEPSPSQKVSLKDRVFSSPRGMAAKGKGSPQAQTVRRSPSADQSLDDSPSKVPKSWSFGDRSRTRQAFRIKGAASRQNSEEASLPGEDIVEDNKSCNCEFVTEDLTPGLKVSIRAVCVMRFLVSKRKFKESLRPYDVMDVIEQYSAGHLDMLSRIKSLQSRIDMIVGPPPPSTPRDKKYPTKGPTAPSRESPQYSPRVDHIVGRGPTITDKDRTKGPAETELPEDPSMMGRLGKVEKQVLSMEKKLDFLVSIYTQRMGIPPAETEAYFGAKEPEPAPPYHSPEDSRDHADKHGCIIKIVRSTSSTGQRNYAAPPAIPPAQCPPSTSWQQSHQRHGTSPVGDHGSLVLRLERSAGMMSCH

Sequence of Potassium voltage-gated channel subfamily KQT member 2 (Mus musculus) (Q9Z351 whole entry): as above

One may read the EC50 as the midpoint of the concentration-response curve. `CCN1CCOc2ccc([C@H](C)NC(=O)/C=C/c3ccccc3F)cc21` showed an E/Eref in assay [1] of 2.1. For the same compound, in assay [2], the EC50 worked out at 0.2 µM.
For the compound `CCOC(=O)Nc1ccc(NCc2ccc(F)cc2)cc1N` [EZOGABINE], the E/Eref in assay [1] came to 1.6. Further, the EC50 in assay [2] stood at 1.3 µM.
In turn, `C[C@H](NC(=O)/C=C/c1ccccc1F)c1ccc2c(c1)NCCO2` gave an E/Eref in assay [1] of 1.2. Further, the concentration for a half-maximal effect (EC50) in assay [2] was determined as 2 µM.
On the same counts, the results for `C[C@H](NC(=O)/C=C/c1ccccc1)c1cccc(N2CCOCC2)c1` are 1.4 and 3.28 µM.
On the same counts, the results for `C[C@H](NC(=O)/C=C/c1ccccc1F)c1ccc2c(c1)N(C)CCO2` are 1.8 and 0.94 µM.
On the same counts, the results for `C[C@H](NC(=O)/C=C/c1ccccc1F)c1ccc2c(c1)N(CC1CC1)CCO2` are 1.83 and 0.06 µM.
